In PMC4865847, “Putative histidine kinase inhibitors with antibacterial effect against multi-drug resistant clinical isolates identified by in vitro and in silico screens” (Scientific Reports, 2016):
Converted amounts (≈) assume the structure as drawn. “And” between values parts separate entries of the source, which are not always exact repeats. Equal entries are not always repeated. Where two headings read alike, the source gives them in different places. Marks after values point to notes of the source that are not given here.

Tests used:
E. coli PhoR (PhoR^E) [1] = biological target: T1, E. coli PhoR (PhoR^E) (Escherichia coli, UniProt P08400); experiment: In vitro autophosphorylation kinase assay with γ-32P-ATP, PhoR^E; type: biochemical; conditions: autophosphorylation, one time point (30 sec), 10% DMSO
T1 construct: The catalytic portion (DHp and CA domain) of E. coli PhoR (PhoR^E); made in house; host or cells: E. coli RIL
Experimental: (§1) To evaluate the inhibitory capacity of selected hits from DSF, SBVS and LBSS in vitro autophosphorylation kinase assays with γ-^32P-ATP were performed as previously described. Ligands were dissolved in 100% DMSO. […] Controls lacking ligands contained an equal concentration of DMSO. Inhibition of autophosphorylation was determined by incubating 0.12 mg/ml (≈4 μM) HK and up to 20 mM fragment in kinase buffer (50 mM Tris HCl, pH 8.5, 50 mM KCl, 5 mM MgCl2, 0.5 mM EDTA and 0.1 mM DTT). Autophosporylation reactions were initiated by addition of 0.1 μCi/μl γ-^32P-ATP containing from 0.03 to 0.06 μM ATP (final concentrations). Autophosphorylation was quenched with 2xSDS-PAGE sample buffer supplemented with 50 mM EDTA. […] After electrophoresis, the bottoms of the gels were removed to lower the background from the unincorporated radiolabeled ATP. Gels were dried without staining on a Bio-Rad Gel Air drying system and the phosphorylated protein was quantified by phosphor-imaging. Prism GraphPad was used for curve fitting and statistical analysis.

[2] = tested on: Staphylococcus epidermidis; experiment: Antibacterial susceptibility testing (MIC/MBC), S. epidermidis; type: cell-based; conditions: for MBC / MIC: Staphylococcus epidermidis, DSM20044, strain DSM 20044; for MIC: read-out: MIC S. epidermidis DSM 20044; for MIC S. epidermidis DSM 20044: strain DSM 20044
Experimental: (§2) Minimal inhibitory concentrations (MICs) were determined following a standard double-dilution method. […] For S. pneumoniae MICs were determined by adapting the standard double-dilution method to anaerobic conditions and of this microorganism (use of Todd Hewitt Yeast extract with 200 U/mL of catalase and continuous monitoring of growth).

S. pneumoniae WalK = biological target: T2, S. pneumoniae WalK (Streptococcus pneumoniae, UniProt Q8DPL8); experiment: In vitro autophosphorylation kinase assay with γ-32P-ATP, WalK; type: biochemical; conditions: autophosphorylation, one time point (30 sec), 10% DMSO
T2 construct: WalK (amino acids from 208 to 449); N-terminal His6-3C site of vector pOPINF (own knowledge of the vector); made in house; host or cells: E. coli RIL
Experimental: as §1

Escherichia coli = experiment: Antibacterial susceptibility testing (MIC/MBC), E. coli; type: cell-based; conditions: strain CFT 073; for MBC / MIC: Escherichia coli; for MBC: read-out: MBC E. coli CFT 073; for MIC: read-out: MIC E. coli CFT 073
Experimental: as §2

S. aureus PhoR (PhoR^S) [3] = biological target: T3, S. aureus PhoR (PhoR^S) (Staphylococcus aureus, UniProt Q2FXN7); experiment: In vitro autophosphorylation kinase assay with γ-32P-ATP, PhoR^S; type: biochemical; conditions: IC50 PhoR^S, autophosphorylation, one time point (30 sec), 10% DMSO
Experimental: (§3) To evaluate the inhibitory capacity of selected hits from DSF, SBVS and LBSS in vitro autophosphorylation kinase assays with γ-^32P-ATP were performed as previously described. Ligands were dissolved in 100% DMSO. […] Controls lacking ligands contained an equal concentration of DMSO. Inhibition of autophosphorylation was determined by incubating 0.12 mg/ml (≈4 μM) HK and up to 20 mM fragment in kinase buffer (50 mM Tris HCl, pH 8.5, 50 mM KCl, 5 mM MgCl2, 0.5 mM EDTA and 0.1 mM DTT). Autophosporylation reactions were initiated by addition of 0.1 μCi/μl γ-^32P-ATP containing from 0.03 to 0.06 μM ATP (final concentrations). Autophosphorylation was quenched with 2xSDS-PAGE sample buffer supplemented with 50 mM EDTA. Samples were applied without heating to 15% (w/v) Tris-glycine SDS-polyacrylamide gels. After electrophoresis, the bottoms of the gels were removed to lower the background from the unincorporated radiolabeled ATP. Gels were dried without staining on a Bio-Rad Gel Air drying system and the phosphorylated protein was quantified by phosphor-imaging. Prism GraphPad was used for curve fitting and statistical analysis.

Staphylococcus aureus = experiment: Antibacterial susceptibility testing (MIC/MBC), S. aureus; type: cell-based; conditions: Staphylococcus aureus, DSM20231, strain DSM 20231; for MBC: read-out: MBC S. aureus DSM 20231; for MIC: read-out: MIC S. aureus DSM 20231
Experimental: as §2

T. maritima HK853 = biological target: T4, T. maritima HK853 (Thermotoga maritima, UniProt Q9WZV7); experiment: In vitro autophosphorylation kinase assay with γ-32P-ATP, HK853; type: biochemical
T4 sequence (Q9WZV7 232-489): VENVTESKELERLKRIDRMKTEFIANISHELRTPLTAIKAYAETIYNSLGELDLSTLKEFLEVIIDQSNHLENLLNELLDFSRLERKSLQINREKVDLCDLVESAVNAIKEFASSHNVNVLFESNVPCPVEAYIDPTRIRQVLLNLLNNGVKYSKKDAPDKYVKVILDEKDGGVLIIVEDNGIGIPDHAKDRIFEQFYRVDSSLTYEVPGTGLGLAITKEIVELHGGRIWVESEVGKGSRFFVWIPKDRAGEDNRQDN
Experimental: as §3

E. coli PhoR (PhoR^E) [4] = biological target: T1, E. coli PhoR (PhoR^E); experiment: Aggregation analysis by native-PAGE, PhoR^E; conditions: 2 mM (S5 and S6 5 mM), 10% DMSO
Experimental: (§4) E. coli PhoR and EnvZ, and S. aureus PhoR ([…], final concentration) were prepared in kinase buffer. […] DMSO in the assays was maintained to a final concentration 10% (v/v). After 30 min of incubation at room temperature Native polyacrylamide gel electrophoresis (Native-PAGE) loading buffer was added and samples loaded. Coomassie blue staining was used for protein visualization.

S. aureus PhoR (PhoR^S) [5] = biological target: T3, S. aureus PhoR (PhoR^S); experiment: Aggregation analysis by native-PAGE, PhoR^S; conditions: 2 mM (S5 and S6 5 mM), 10% DMSO
Experimental: as §4

[6] = Solubility in kinase buffer; type: physicochemical; conditions: kinase buffer with 10% DMSO, pH 8.5, aqueous with cosolvent or surfactant or cyclodextrin, kinetic from dmso stock; kinase buffer in the presence of 10% DMSO; read-out: concentration above which not soluble / reduced solubility in kinase buffer

T1 sequence (P08400 210-425): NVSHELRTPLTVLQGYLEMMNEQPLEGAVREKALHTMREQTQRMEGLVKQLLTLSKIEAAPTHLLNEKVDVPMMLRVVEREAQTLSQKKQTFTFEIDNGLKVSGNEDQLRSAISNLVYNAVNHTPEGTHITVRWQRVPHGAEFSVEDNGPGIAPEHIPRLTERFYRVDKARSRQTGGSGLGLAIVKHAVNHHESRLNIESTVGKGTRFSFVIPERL
T2 sequence (Q8DPL8 208-449): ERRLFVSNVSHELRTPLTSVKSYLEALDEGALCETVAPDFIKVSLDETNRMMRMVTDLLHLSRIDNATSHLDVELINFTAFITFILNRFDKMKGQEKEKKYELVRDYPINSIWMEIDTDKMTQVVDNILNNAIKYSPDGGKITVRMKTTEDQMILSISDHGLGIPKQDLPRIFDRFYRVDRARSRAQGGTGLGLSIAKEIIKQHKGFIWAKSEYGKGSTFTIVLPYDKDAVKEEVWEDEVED
T3 sequence (Q2FXN7 entry or part of it): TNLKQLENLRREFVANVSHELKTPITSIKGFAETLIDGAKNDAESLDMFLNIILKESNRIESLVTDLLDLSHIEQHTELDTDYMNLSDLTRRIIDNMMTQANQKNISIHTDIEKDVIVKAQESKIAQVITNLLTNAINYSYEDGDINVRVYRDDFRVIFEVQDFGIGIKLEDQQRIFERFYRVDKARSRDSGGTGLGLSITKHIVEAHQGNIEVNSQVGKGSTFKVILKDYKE

SMILES | IC50 (E. coli PhoR (PhoR^E) [1]; read-out: IC50 PhoR^E) | MBC [2] [µg/mL] | MIC [2] [µg/mL] | MIC S. epidermidis DSM 20044 [2] | IC50 (S. pneumoniae WalK; IC50 WalK) [µM] | IC50 (S. pneumoniae WalK; read-out: IC50 WalK) [µM] | MBC (Escherichia coli) [µg/mL] | MIC (Escherichia coli) [µg/mL] | MIC E. coli CFT 073 (Escherichia coli) | IC50 (S. aureus PhoR (PhoR^S) [3]) [µM] | MBC (Staphylococcus aureus) [µg/mL] | MIC (Staphylococcus aureus) [µg/mL] | IC50 (T. maritima HK853; autophosphorylation, one time point (30 sec), 10% DMSO, read-out: IC50 HK853) [µM] | HK aggregation, PhoR^E (E. coli PhoR (PhoR^E) [4]) | HK aggregation, PhoR^S (S. aureus PhoR (PhoR^S) [5]) | IC50 (E. coli PhoR (PhoR^E) [1]; IC50 PhoR^E) [µM] | solubility [6] [µM] | IC50 (T. maritima HK853) [µM]
CC(=O)Nc1cccc(C(C)NCc2cccc(Br)c2)c1 (centres unmarked) [S6] | 372 µM and 370 µM | > 500 | 500 (≈ 1440 µM) | 500^# μg/ml | ~1000 | > 1000 | > 500 | 500 (≈ 1440 µM) | 500^# μg/ml | 1140 | > 500 | > 500 | > 5000 | do not cause HK aggregation | do not cause HK aggregation |  |  | 
CCC(Nc1cccc(NC(C)=O)c1)c1ccc(F)cc1 (centres unmarked) [S5] |  | > 500 | 500 (≈ 1750 µM) | 500^# μg/ml | > 1000 |  | > 500 | > 500 |  | ~1000 | > 500 | > 500 |  | do not cause HK aggregation | do not cause HK aggregation | ~1000 | ≤ 1300 | > 5000
